# Results published in PubChem BioAssay (NCI).
#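 Five compound concentrations were applied to cells in 96-well plates for 48 hours; endpoints were derived by simple linear interpolation of the resulting dose-response curve. GI50 = concentration required for 50% inhibition of growth. At the TGI there is no net growth.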 Where a SMILES comes first, the peptide text is derived from it. Bridges are numbered along the chain shown (N, C = ends). [ ]: non-standard residue; d: D form. The star is where a group is joined. Phe(3,5-F2) = N[C@@H](Cc1cc(F)cc(F)c1)C(=O)O; Pro(4R-Me) = C[C@H]1CN[C@H](C(=O)O)C1; aThr = C[C@H](O)[C@H](N)C(=O)O; Pip = O=C(O)[C@@H]1CCCCN1; X7 = CCC/C=C/C=C/C(=O)*
# What was measured:
# Test in all cases: inhibition of tumour cell growth, NCI panel, 48 h
# NCI-H460 lung = system: NCI-H460 lung
# SK-MEL-5 melanoma = system: SK-MEL-5 melanoma
# M14 melanoma = system: M14 melanoma
# MDA-MB-231 breast = system: MDA-MB-231 breast
# OVCAR-3 ovarian = system: OVCAR-3 ovarian
# HOP-62 NSCLC = system: HOP-62 NSCLC
# K-562 leukemia = system: K-562 leukemia
# CCRF-CEM leukemia = system: CCRF-CEM leukemia
# NCI-H226 lung = system: NCI-H226 lung
# HCT-116 colon = system: HCT-116 colon
# OVCAR-8 ovarian = system: OVCAR-8 ovarian
# COLO 205 colon = system: COLO 205 colon
# HS 578T breast = system: HS 578T breast
# SK-OV-3 ovarian = system: SK-OV-3 ovarian
# HCC-2998 colon = system: HCC-2998 colon
# KM12 colon = system: KM12 colon
# ACHN renal = system: ACHN renal
# A549 NSCLC = system: A549 NSCLC
# SNB-19 CNS = system: SNB-19 CNS
# A498 renal = system: A498 renal
# HOP-92 NSCLC = system: HOP-92 NSCLC
# SF-295 CNS = system: SF-295 CNS
# TK-10 renal = system: TK-10 renal
# SF-268 CNS = system: SF-268 CNS
# NCI-H522 lung = system: NCI-H522 lung
# BT-549 breast = system: BT-549 breast
# T-47D breast = system: T-47D breast
# SK-MEL-28 melanoma = system: SK-MEL-28 melanoma
# 786-0 renal = system: 786-0 renal
# MCF7 breast = system: MCF7 breast
# UO-31 renal = system: UO-31 renal
# MOLT-4 leukemia = system: MOLT-4 leukemia
# DU-145 prostate = system: DU-145 prostate
# MDA-MB-435 = system: MDA-MB-435
# SN12C renal = system: SN12C renal
# IGROV1 ovarian = system: IGROV1 ovarian
# UACC-62 melanoma = system: UACC-62 melanoma
# MALME-3M melanoma = system: MALME-3M melanoma
# SF-539 CNS = system: SF-539 CNS
# SR leukemia = system: SR leukemia
# RPMI-8226 leukemia = system: RPMI-8226 leukemia
# SNB-75 CNS = system: SNB-75 CNS
# OVCAR-4 ovarian = system: OVCAR-4 ovarian
# NCI-H23 lung = system: NCI-H23 lung
# LOX IMVI melanoma = system: LOX IMVI melanoma
# OVCAR-5 ovarian = system: OVCAR-5 ovarian
# NCI/ADR-RES ovarian = system: NCI/ADR-RES ovarian
# UACC-257 melanoma = system: UACC-257 melanoma
# SK-MEL-2 melanoma = system: SK-MEL-2 melanoma
# PC-3 prostate = system: PC-3 prostate
# HCT-15 colon = system: HCT-15 colon
# CAKI-1 renal = system: CAKI-1 renal
# HL-60(TB) leukemia = system: HL-60(TB) leukemia
# RXF 393 renal = system: RXF 393 renal
# SW-620 colon = system: SW-620 colon
# EKVX NSCLC = system: EKVX NSCLC
# HT29 colon = system: HT29 colon
# U251 CNS = system: U251 CNS
compound,measurement,setting,value
"CCC/C=C/C=C/C(=O)N[C@@H](Cc1cc(F)cc(F)c1)C(=O)N[C@@H]1C(=O)N2CCC[C@H]2C(=O)N2CCCC[C@H]2C(=O)N[C@@H](C)C(=O)N2C[C@H](C)C[C@H]2C(=O)O[C@H]1C (X7-[Phe(3,5-F2)][aThr]P[Pip]A[Pro(4R-Me)]; ester 2-C)",GI50,NCI-H460 lung,500 nM
same,TGI,NCI-H460 lung,14100 nM
same,GI50,SK-MEL-5 melanoma,509 nM
same,TGI,SK-MEL-5 melanoma,3310 nM
same,GI50,M14 melanoma,461 nM
same,TGI,M14 melanoma,5230 nM
same,GI50,MDA-MB-231 breast,409 nM
same,TGI,MDA-MB-231 breast,3360 nM
same,GI50,OVCAR-3 ovarian,596 nM
same,TGI,OVCAR-3 ovarian,17100 nM
same,GI50,HOP-62 NSCLC,516 nM
same,TGI,HOP-62 NSCLC,16900 nM
same,GI50,K-562 leukemia,402 nM
same,TGI,K-562 leukemia,> 100000 nM
same,GI50,CCRF-CEM leukemia,411 nM
same,TGI,CCRF-CEM leukemia,14500 nM
same,GI50,NCI-H226 lung,547 nM
same,TGI,NCI-H226 lung,7970 nM
same,GI50,HCT-116 colon,420 nM
same,TGI,HCT-116 colon,11400 nM
same,GI50,OVCAR-8 ovarian,414 nM
same,TGI,OVCAR-8 ovarian,> 46800 nM
same,GI50,COLO 205 colon,286 nM
same,TGI,COLO 205 colon,850 nM
same,GI50,HS 578T breast,594 nM
same,TGI,HS 578T breast,17400 nM
same,GI50,SK-OV-3 ovarian,499 nM
same,TGI,SK-OV-3 ovarian,12800 nM
same,GI50,HCC-2998 colon,463 nM
same,TGI,HCC-2998 colon,4930 nM
same,GI50,KM12 colon,1810 nM
same,TGI,KM12 colon,29000 nM
same,GI50,ACHN renal,1120 nM
same,TGI,ACHN renal,28700 nM
same,GI50,A549 NSCLC,506 nM
same,TGI,A549 NSCLC,> 58500 nM
same,GI50,SNB-19 CNS,405 nM
same,TGI,SNB-19 CNS,35200 nM
same,GI50,A498 renal,2430 nM
same,TGI,A498 renal,28400 nM
same,GI50,HOP-92 NSCLC,313 nM
same,TGI,HOP-92 NSCLC,3740 nM
same,GI50,SF-295 CNS,358 nM
same,TGI,SF-295 CNS,2030 nM
same,GI50,TK-10 renal,1050 nM
same,TGI,TK-10 renal,43700 nM
same,GI50,SF-268 CNS,957 nM
same,TGI,SF-268 CNS,> 46400 nM
same,GI50,NCI-H522 lung,462 nM
same,TGI,NCI-H522 lung,13000 nM
same,GI50,BT-549 breast,370 nM
same,TGI,BT-549 breast,3400 nM
same,GI50,T-47D breast,453 nM
same,TGI,T-47D breast,13900 nM
same,GI50,SK-MEL-28 melanoma,987 nM
same,TGI,SK-MEL-28 melanoma,14100 nM
same,GI50,786-0 renal,842 nM
same,TGI,786-0 renal,31000 nM
same,GI50,MCF7 breast,354 nM
same,TGI,MCF7 breast,13600 nM
same,GI50,UO-31 renal,1080 nM
same,TGI,UO-31 renal,27500 nM
same,GI50,MOLT-4 leukemia,1110 nM
same,TGI,MOLT-4 leukemia,> 44000 nM
same,GI50,DU-145 prostate,619 nM
same,TGI,DU-145 prostate,> 66700 nM
same,GI50,MDA-MB-435,412 nM
same,TGI,MDA-MB-435,5710 nM
same,GI50,SN12C renal,419 nM
same,TGI,SN12C renal,15500 nM
same,GI50,IGROV1 ovarian,1780 nM
same,TGI,IGROV1 ovarian,23700 nM
same,GI50,UACC-62 melanoma,522 nM
same,TGI,UACC-62 melanoma,6370 nM
same,GI50,MALME-3M melanoma,1010 nM
same,TGI,MALME-3M melanoma,14000 nM
same,GI50,SF-539 CNS,744 nM
same,TGI,SF-539 CNS,13500 nM
same,GI50,SR leukemia,892 nM
same,TGI,SR leukemia,26400 nM
same,GI50,RPMI-8226 leukemia,339 nM
same,TGI,RPMI-8226 leukemia,4760 nM
same,GI50,SNB-75 CNS,313 nM
same,TGI,SNB-75 CNS,12700 nM
same,GI50,OVCAR-4 ovarian,395 nM
same,TGI,OVCAR-4 ovarian,19300 nM
same,GI50,NCI-H23 lung,389 nM
same,TGI,NCI-H23 lung,13400 nM
same,GI50,LOX IMVI melanoma,433 nM
same,TGI,LOX IMVI melanoma,12800 nM
same,GI50,OVCAR-5 ovarian,583 nM
same,TGI,OVCAR-5 ovarian,6130 nM
same,GI50,NCI/ADR-RES ovarian,2170 nM
same,TGI,NCI/ADR-RES ovarian,16100 nM
same,GI50,UACC-257 melanoma,356 nM
same,TGI,UACC-257 melanoma,4160 nM
same,GI50,SK-MEL-2 melanoma,422 nM
same,TGI,SK-MEL-2 melanoma,5100 nM
same,GI50,PC-3 prostate,367 nM
same,TGI,PC-3 prostate,17200 nM
same,GI50,HCT-15 colon,482 nM
same,TGI,HCT-15 colon,11000 nM
same,GI50,CAKI-1 renal,415 nM
same,TGI,CAKI-1 renal,12500 nM
same,GI50,HL-60(TB) leukemia,404 nM
same,TGI,HL-60(TB) leukemia,5830 nM
same,GI50,RXF 393 renal,1500 nM
same,TGI,RXF 393 renal,8290 nM
same,GI50,SW-620 colon,704 nM
same,TGI,SW-620 colon,> 46100 nM
same,GI50,EKVX NSCLC,491 nM
same,TGI,EKVX NSCLC,26200 nM
same,GI50,HT29 colon,586 nM
same,TGI,HT29 colon,4160 nM
same,GI50,U251 CNS,451 nM
same,TGI,U251 CNS,16500 nM
